Data as given in patent US6004967A, “Psoriasis treatment with quinazoline compounds” (priority 1997, dated 1999).
Where two headings read alike, the source gives them in different places.

Legend:
[1] = test system: NIH 3T3 C7 cells engineered to express EGF-R (3T3-EGFR); experiment: 3T3 cell growth assay, EGF-R C7 cells (3T3-EGFR); type: cell-based; conditions: Mus musculus, NIH3T3, 96 h, read-out: 3T3-EGFR IC50
Procedure: The efficacy of the above identified compounds in inhibiting or reducing EGF-R stimulated proliferation is measured by the 3T3 cell growth assay. The 3T3 growth assay was carried out as follows:
EGF-RC7 (NIH 3T3 C7 cells engineered to express EGF-R) and NIH 3T3C7 cells (as the control) were used for this assay. NIH3T3C7 cells were seeded at 2500 cells/well, […] in 10% CS+2 mM Glutamine/DMEM, in a 96 well plate; EGF-RC7 cells were seeded at 6000 cells/well, 100 μl/well in 2% FBS+2 mM Glutamine/DMEM, in a 96 well plate. Cells were incubated at 37° C., 5% CO2 overnight to allow for cell attachment to the plate.
A quinazoline compound was added to the cells at day 2. The compound was prepared in the appropriate growth medium (10% CS+2 mM glutamine in DMEM for NIH3T3C7 cells; 2% FBS+2 mM Glutamine in DMEM for EGF-RC7 cells) in a 96 well plate, and serially diluted. A total of 100 μl/well medium of the diluted compounds was added into the cells. The total volume of each well was 200 μl.
After the cells were treated with the compound for 4 days, the cells were washed with PBS and fixed with 200 μl/well ice-cold […] for one hour at 0-5° C.
Remove TCA and rinse wells 5 times with deionized water. Dry plates upside down with paper towels. Stain cells with 0.4% SRB at 100 μl/well for 10 minutes.
Pour off SRB and rinse plate 5 times with 1% acetic acid. Dry plate completely.
Solubilize the dye with 10 mM Tris-base at 100 μl/well for 10 minutes on a shaker.
Read the plate at dual wavelengths at 570 nm and 630 nm on Dynatech Elisa plate reader.

human EGF-R = biological target: T1, human EGF-R (Homo sapiens, UniProt P00533); experiment: EGF-R whole cell kinase assay (EGF-R-3T3 ELISA); type: cell-based; conditions: for IC50: whole cell, EGF-stimulated EGF-R phosphorylation, free base, read-out: EGFR Kinase IC50
T1 construct: expressed in transfected cells; host or cells: NIH3T3 clone C7 (mouse fibroblasts)
T1 sequence (P00533 25-1210): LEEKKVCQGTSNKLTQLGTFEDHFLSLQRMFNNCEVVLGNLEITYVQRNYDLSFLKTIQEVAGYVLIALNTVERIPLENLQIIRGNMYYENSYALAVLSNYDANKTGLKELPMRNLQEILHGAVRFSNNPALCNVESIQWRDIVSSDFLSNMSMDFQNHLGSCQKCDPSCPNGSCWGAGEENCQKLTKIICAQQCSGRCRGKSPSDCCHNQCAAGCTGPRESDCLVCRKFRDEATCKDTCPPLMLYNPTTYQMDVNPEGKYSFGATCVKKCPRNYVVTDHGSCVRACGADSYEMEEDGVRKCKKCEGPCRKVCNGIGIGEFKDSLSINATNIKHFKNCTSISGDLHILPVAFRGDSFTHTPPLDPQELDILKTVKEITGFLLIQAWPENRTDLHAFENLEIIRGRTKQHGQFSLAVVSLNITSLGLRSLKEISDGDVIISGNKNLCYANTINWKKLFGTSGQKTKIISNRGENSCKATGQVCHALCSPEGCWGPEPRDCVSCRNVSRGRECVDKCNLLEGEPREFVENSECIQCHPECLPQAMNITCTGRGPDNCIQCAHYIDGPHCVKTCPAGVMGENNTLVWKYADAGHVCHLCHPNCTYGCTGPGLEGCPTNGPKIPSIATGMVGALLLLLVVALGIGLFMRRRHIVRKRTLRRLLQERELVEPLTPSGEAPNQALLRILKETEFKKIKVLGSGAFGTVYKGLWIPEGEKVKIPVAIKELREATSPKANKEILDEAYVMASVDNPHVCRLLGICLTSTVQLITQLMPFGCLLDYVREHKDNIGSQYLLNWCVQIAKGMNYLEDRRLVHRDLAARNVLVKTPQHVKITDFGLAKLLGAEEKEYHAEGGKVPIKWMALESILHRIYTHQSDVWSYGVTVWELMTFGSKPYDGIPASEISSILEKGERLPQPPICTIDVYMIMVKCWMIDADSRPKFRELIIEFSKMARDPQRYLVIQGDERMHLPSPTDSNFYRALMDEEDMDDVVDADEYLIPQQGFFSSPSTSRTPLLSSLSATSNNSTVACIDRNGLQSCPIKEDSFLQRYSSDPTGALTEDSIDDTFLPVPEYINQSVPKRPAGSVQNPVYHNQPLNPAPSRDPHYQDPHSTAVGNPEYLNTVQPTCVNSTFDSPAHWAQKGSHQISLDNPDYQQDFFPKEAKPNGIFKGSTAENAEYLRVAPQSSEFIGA
Procedure: The activity of the above identified compounds in inhibiting EGF-stimulatedEGF-R phosphorylation was measured in an ELISA assay.
EGF-R kinase activity (EGF-R-3T3 assay) in whole cells was measured as described below:
Coated plates are good for up to 10 days when stored at 4° C.
On day of use, remove coating buffer and replace with blocking buffer (5% Carnation Instant NonFat Dry Milk in PBS). Incubate the plate, shaking, at room temperature (about 23° C. to 25° C.) for 30 minutes. Just prior to use, remove blocking buffer and wash plate 4 times with TBST buffer.
EGF-R/C7 cell line was used for this assay.
Choose dishes having 80-90% confluence for the experiment. Trypsinize cells and stop reaction by adding 10% CS DMEM medium. Suspend cells in DMEM medium (10% calf serum (CS) DMEM medium) and centrifuge once at 1000 rpm, and once at room temperature for 5 minutes.
Resuspend cells in seeding medium (DMEM, 0.5% bovine serum), and count the cells using trypan blue. Viability above 90% is acceptable. Seed cells in DMEM medium (0.5% bovine serum) at a density of 10,000 cells per well, 100 μl per well, in a 96 well microtiter plate. Incubate seeded cells in 5% CO2 at 37° C. for about 40 hours.
Check seeded cells for contamination using an inverted microscope. Dilute drug stock (10 mg/ml in DMSO) 1:10 in DMEM medium, then transfer 5 μl to a test well for a final drug dilution of 1:200 and a final DMSO concentration of 1%. Control wells receive DMSO alone. Incubate in 5% CO2 at 37° C. for one hour.
Control wells receive DMEM alone. Incubate and shake at room temperature for 5 minutes.
Remove drug, EGF, and DMEM. Wash cells twice with PBS. Transfer HNTG* to cells, 100 μl per well. Place on ice for 5 minutes. Meanwhile, remove blocking buffer from other ELISA plate and wash with TBST as described above.
With a pipette tip securely fitted to a micropipettor, scrape cells from plate and homogenize cell material by repeatedly aspirating and dispensing the HNTG* lysis buffer. Transfer lysate to a coated, blocked, and washed ELISA plate. Incubate and shake at room temperature for one hour.
Remove lysate and wash 4 times with TBST. Transfer freshly diluted anti-phosphotyrosine (anti-Ptyr) antibody to ELISA plate at 100 μl per well. Incubate shaking at room temperature for 30 minutes in the presence of the anti-Ptyr antiserum (1:3000 dilution in TBST).
Remove the anti-Ptyr antibody and wash 4 times with TBST. Transfer the freshly diluted TAGO 30 anti-rabbit IgG antibody (anti-rabbit IgG antibody: 1:3000 dilution in TBST) to the ELISA plate at 100 μl per well. Incubate shaking at room temperature for 30 minutes.
Remove detection antibody and wash 4 times with TBST. Transfer freshly prepared ABTS/H2 O2 solution to ELISA plate, 100 μl per well. Incubate at room temperature for 20 minutes. ABTS/H2 O2 solution: 1.2 μl 30% H2 O2 in 10 ml ABTS stock.
Stop reaction by adding 50 μl 5N H2 SO4 (optional), and determine O.D. at 410 nm.
The maximal phosphotyrosine signal is determined by subtracting the value of the negative controls from the positive controls. The percent inhibition of phosphotyrosine content for extract-containing wells is then calculated after subtraction of the negative controls.

[2] = Plasma concentration after single IP dose; type: in vivo; conditions: mouse, plasma, single dose 50 mg/kg IP, BALB/c nu/nu female mice; for concentration at […]: 15 min; for concentration at 1 h: 60 min
Procedure: **Single dose (50 mg/kg), IP, in BALB/c, nu/nu, female mice.

in vivo = conditions: single dose, IP, BALB/c female mice; for LD50 at 168 h: mouse, in vivo; for LD50 at 168 h / LD10: 7 days; for deaths: at the dose for LD10/LD50
3T3-PDGFR = experiment: cell growth assay, PDGFR expressing cells (3T3-PDGFR), selectivity; type: cell-based; conditions: for IC50: 96 h, read-out: 3T3-PDGFR IC50; for PDGFR/EGFR IC50/IC50: ratio 3T3-PDGFR / 3T3-EGFR, 5760 min
[3] = test system: psoriatic human keratinocytes; experiment: Growth of psoriatic human keratinocytes; type: cell-based
Source text: Cells and Cell Culture. All tumor cell lines were obtained from the American Type Culture Collection (Rockville, Md.), unless otherwise specified. NIH3T3 mouse fibroblasts overexpressing the EGF receptor, IGF-1 receptor, insulin receptor, PDGF-b receptor, or a chimera of the EGF receptor extracellular domain fused to the Her-2 cytoplasmic domain were engineered using retroviral vectors. These cells will be referred to as 3T3-EGFR, 3T3-IGF1R, 3T3-IR, 3T3-PDGF-bR, and 3T3-EGFR/Her-2, respectively. All cell culture media and supplements were purchased from Gibco Life Technologies (Grand Island, N.Y.) unless otherwise specified. […] Cell lines were maintained under standard conditions in culture media recommended by the ATCC, unless otherwise specified. 3T3-EGFR, 3T3-PDGF-bR, and 3T3-EGFR/Her-2 cells were maintained in DMEM containing 10% calf serum (CS) and 2 mM GLN. 3T3-IGF1R and 3T3-IR cells were maintained in DMEM containing 10% FBS and 2 mM GLN. Keratinocytes were obtained from small biopsy specimens of split-thicknessskin from patients with psoriasis and from healthy control donors.
In vitro functional studies. […] Cell lines examined in receptor phosphorylation ELISA were 3T3-EGFR, 3T3-EGFR/Her-2, 3T3-PDGF-bR, 3T3-IGF1R, and 3T3-IR. For analysis of DNA replication (measured as incorporation of BrdU) and cell cycle progression, 3T3-EGFR and 3T3-PDGF-bR cell lines were used. Cell growth studies were carried out on A431 (EGF-R+), BT474 (Her-2+), and C6 (PDGF-bR+) cell lines.

| Structure (SMILES) | IC50 [1] | inhibition of EGF-stimulated EGF-R phosphorylation (in words) (human EGF-R) | concentration at 5 min [2] | concentration at […] [2] | concentration at 1 h [2] | LD50 at 168 h (in vivo) | LD10 (in vivo) | deaths (in vivo) | IC50 (3T3-PDGFR) | inhibition of psoriatic skin cell / keratinocyte proliferation in vitro (in words) [3] | IC50 ([1]; cell growth, 4 days, free base) | IC50 (human EGF-R) | IC50 (3T3-PDGFR; cell growth, 4 days, free base) | PDGFR/EGFR IC50/IC50 (3T3-PDGFR) | LD40 (in vivo; printed in LD10 and LD50 columns) |
| --- | --- | --- | --- | --- | --- | --- | --- | --- | --- | --- | --- | --- | --- | --- | --- |
| COc1cc2ncnc(Nc3cccc(Cl)c3)c2cc1OC [A2, 4-(3-Chlorophenylamino)-6,7-dimethoxyquinazoline] | 0.11 µM | able to inhibit | 11500 ± 4000 ng/mL | 6500 ± 1300 ng/mL | 3700 ± 500 ng/mL | > 200 mg/kg | > 200 mg/kg | no | 18 µM | capable of inhibiting |  |  |  |  |  |
| Cc1ccc2ncnc(Nc3cccc(Cl)c3)c2c1 [A3, 4-(3-Chlorophenylamino)-6-methylquinazoline] |  | able to inhibit | 7870 ± 980 ng/mL | 3430 ± 820 ng/mL | 1340 ± 110 ng/mL | > 400 mg/kg |  |  |  | capable of inhibiting | 2 µM | 0.058 µM | 10 µM | 5 |  |
| COc1cc2ncnc(Nc3cccc(C(F)(F)F)c3)c2cc1OC [A4, 4-[3-(trifluoromethyl)phenylamino]-6,7-dimethoxyquinazoline] |  | able to inhibit | 13300 ± 1500 ng/mL | 12700 ± 3000 ng/mL | 3900 ng/mL |  |  |  |  | capable of inhibiting | 0.4 µM | < 0.006 µM | 28 µM | 70 | 400 mg/kg |
| COc1cc2ncnc(Nc3cccc(C#N)c3)c2cc1OC [A5, 4-(3-Cyanophenylamino)-6,7-dimethoxyquinazoline] |  | able to inhibit | 950 ± 420 ng/mL | 650 ± 190 ng/mL | 130 ± 60 ng/mL | > 153 mg/kg | > 153 mg/kg | no |  | capable of inhibiting | 1.5 µM | 0.2 µM | > 100 µM | 67 |  |
| Cc1ccc2ncnc(Nc3cccc(C(F)(F)F)c3)c2c1 [A6, 4-[3-(trifluoromethyl)phenylamino]-6-methylquinazoline] |  | able to inhibit | 4450 ± 1380 ng/mL | 2010 ± 530 ng/mL | 540 ± 200 ng/mL | > 400 mg/kg | > 400 mg/kg | no |  | capable of inhibiting | 6 µM | 0.9 µM | 30 µM | 5 |  |
